For assay [1], the system named is diabetic mice (db/db) loaded with a methionine-choline-deficient diet. The assay is described as follows: Efficacy on methionine-choline-deficient diet diabetic mice. The assay is classed as in vivo, mouse. The conditions noted are these: MCD diet db/db mice, two weeks, oral once a day; EPA-E 1000 mg/kg or compound 1 1 mg/kg; compared with the control group. The procedure: Pharmacological actions of EPA-E and/or compound 1 on hepatic disorders and fibrosis are confirmed by using diabetic mice loaded with a methionine-choline-deficient diet (hereafter referred to as “MCD diet”), which are known for their development of NASH-like hepatic lesions. Seven-week-old male db/db mice (Charles River Japan, Inc.) are fed at 23° C. on a 12:12 light/dark cycle, whereupon they are permitted to take either an ordinary diet (F-1; Funabashi Farm Co., Ltd.) or a MCD diet (Dyets, Inc.) freely for two weeks. The mice are divided into five groups (each comprising 20 animals), namely, normal group (ordinary diet-loaded), control group (MCD diet-loaded), EPA-E group (MCD diet-loaded, plus EPA-E-administered), compound 1 group (MCD diet-loaded, plus compound 1-administered), and combined application group (MCD diet-loaded, plus EPA-E-administered, plus compound 1-administered). During the feeding, 1000 mg/kg of EPA-E is administered to the EPA-E group, 1 mg/kg of compound 1 to the compound 1 group, as well as 1000 mg/kg of EPA-E and 1 mg/kg of compound 1 are administered to the combined application group, with each administration being orally carried out once a day by suspending the relevant drug or drugs in a 5% aqueous solution of gum arabic. To the normal group and the control group, a 5% aqueous solution of gum arabic is orally administered once a day. […]

Assay [2] relates to high fat and high sucrose diet taking SD rats. The assay is described as follows: Efficacy on high fat and high sucrose diet taking rats. The assay is classed as in vivo, rat. Conditions: HF diet SD rats, four weeks, oral once a day; EPA-E 1000 mg/kg or compound 2 1 mg/kg; compared with the control group. The procedure:
Four-week-old male SD rats are fed at 23° C. on a 12:12 light/dark cycle, whereupon they are permitted to take either an ordinary diet (F-1; Funabashi Farm Co., Ltd.) or a high fat and high sucrose diet (TD88137 from Harlan […]; hereafter referred to as “HF diet”) freely for four weeks. The rats are divided into five groups (each comprising 10 animals), namely, normal group (ordinary diet-loaded), control group (HF diet-loaded), EPA-E group (HF diet-loaded, plus EPA-E-administered), compound 2 group (HF diet-loaded, plus compound 2-administered), and combined application group (HF diet-loaded, plus EPA-E-administered, plus compound 2-administered). During the feeding, 1000 mg/kg of EPA-E is administered to the EPA-E group, 1 mg/kg of compound 2 to the compound 2 group, as well as 1000 mg/kg of EPA-E and 1 mg/kg of compound 2 are administered to the combined application group, with each administration being orally carried out once a day by suspending the relevant drug or drugs in a 5% aqueous solution of gum arabic. To the normal group and the control group, a 5% aqueous solution of gum arabic is orally administered once a day. After the feeding for four weeks, blood samples are collected to measure the neutrophil count and conduct biochemical assays of the plasma.

The next assay deals with NASH. The conditions noted are these: EPA-E of high purity, 2700 mg/day for 12 months; cited from earlier work.

Consider `CC/C=C\C/C=C\C/C=C\C/C=C\C/C=C\CCCC(=O)OCC` [EPA-E, EPA ethyl], for which, in assay [1], the “increases of the plasma AST and ALT levels” value is recorded as “suppressed”; the “increases of the type IV collagen, hyaluronic acid and TIMP-1 levels” value is recorded as “suppressed”. In addition, in assay [2], the “increases of the neutrophil count, TNFα, IL-6, high sensitivity CRP, ferritin, thioredoxin and type IV collagen” value is “suppressed”; the “increases of the plasma AST and ALT levels” value is on record as “suppressed”. Also, in the assay on NASH, the “NASH (AST or ALT, inflammatory cytokines or oxidative stress markers, hepatobiopsy)” value is given as “amelioration of NASH”.

Consider `CCn1ncc2c(-c3cncc(Br)c3)c(C#N)c(C)nc21` [compound 2, 4-(5-bromo-3-pyridyl)-1-ethyl-6-methyl-1H-pyrazolo[3,4-b]pyridine-5-carbonitrile], for which, in assay [2], the “increases of the neutrophil count, TNFα, IL-6, high sensitivity CRP, ferritin, thioredoxin and type IV collagen” value is given as “suppressed”; the “increases of the plasma AST and ALT levels” value was “suppressed”.
